The assay has as its target human F508del-CFTR (Homo sapiens, UniProt P13569, DEL508-508). In words: F508del-CFTR cell surface expression (corrector activity), DiscoveRx ß-galactosidase complementation chemiluminescence assay in recombinant U2OS cell line.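 As to all read-outs here: U2OS cells co-expressing ProLink-tagged F508del-CFTR and a membrane-anchored enzyme acceptor, where more surface CFTR restores β-galactosidase activity measured by chemiluminescence.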 Particulars: U2OS cells, 16h compound incubation; for EC50: EC50, F508del-CFTR cell surface expression, geomean of several measurements; for Emax: U2OS, in relation to the Emax of the corrector lumacaftor (=100%), arithmetic mean.

human F508del-CFTR, sequence (P13569 with tags, fused parts or gaps DEL508-508): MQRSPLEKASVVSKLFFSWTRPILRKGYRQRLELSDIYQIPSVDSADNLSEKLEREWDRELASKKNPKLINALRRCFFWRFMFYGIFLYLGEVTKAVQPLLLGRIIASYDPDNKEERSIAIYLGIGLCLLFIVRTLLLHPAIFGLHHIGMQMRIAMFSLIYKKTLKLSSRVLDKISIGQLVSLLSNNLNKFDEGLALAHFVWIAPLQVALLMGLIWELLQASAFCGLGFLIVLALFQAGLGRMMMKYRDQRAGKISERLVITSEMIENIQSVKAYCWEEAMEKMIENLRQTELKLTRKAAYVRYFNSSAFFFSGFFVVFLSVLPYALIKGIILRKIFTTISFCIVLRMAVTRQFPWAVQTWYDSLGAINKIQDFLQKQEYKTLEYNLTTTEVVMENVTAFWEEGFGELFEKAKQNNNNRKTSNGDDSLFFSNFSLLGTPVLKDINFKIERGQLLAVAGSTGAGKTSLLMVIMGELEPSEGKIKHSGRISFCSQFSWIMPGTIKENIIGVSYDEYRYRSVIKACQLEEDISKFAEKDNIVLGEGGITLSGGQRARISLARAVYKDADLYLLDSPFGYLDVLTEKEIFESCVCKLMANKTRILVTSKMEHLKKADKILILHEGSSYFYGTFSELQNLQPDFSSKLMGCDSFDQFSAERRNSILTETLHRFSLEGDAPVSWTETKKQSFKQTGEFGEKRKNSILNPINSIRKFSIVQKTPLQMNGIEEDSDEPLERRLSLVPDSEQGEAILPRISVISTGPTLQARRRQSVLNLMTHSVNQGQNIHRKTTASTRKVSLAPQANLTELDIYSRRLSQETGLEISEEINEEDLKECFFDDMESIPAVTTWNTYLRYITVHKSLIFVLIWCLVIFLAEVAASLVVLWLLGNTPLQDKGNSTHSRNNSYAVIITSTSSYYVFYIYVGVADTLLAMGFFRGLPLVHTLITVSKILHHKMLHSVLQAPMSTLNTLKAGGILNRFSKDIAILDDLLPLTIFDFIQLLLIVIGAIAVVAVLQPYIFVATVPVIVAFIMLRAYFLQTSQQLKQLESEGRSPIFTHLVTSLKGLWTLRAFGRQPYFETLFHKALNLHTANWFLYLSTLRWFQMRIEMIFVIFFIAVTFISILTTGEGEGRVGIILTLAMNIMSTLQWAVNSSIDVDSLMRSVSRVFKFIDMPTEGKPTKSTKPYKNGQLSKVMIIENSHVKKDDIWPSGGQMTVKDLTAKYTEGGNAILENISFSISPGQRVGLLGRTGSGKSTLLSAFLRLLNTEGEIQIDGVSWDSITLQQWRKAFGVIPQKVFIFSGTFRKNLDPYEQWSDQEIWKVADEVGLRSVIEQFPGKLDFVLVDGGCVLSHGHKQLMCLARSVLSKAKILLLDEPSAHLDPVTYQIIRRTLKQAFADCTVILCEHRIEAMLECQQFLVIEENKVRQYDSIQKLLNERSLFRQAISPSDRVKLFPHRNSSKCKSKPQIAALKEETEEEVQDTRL

As to `COc1noc(CCNC(=O)[C@@H]2CC(=O)N(C)[C@@H](CC(C)C)C(=O)N(C)C3(CC(F)(F)C3)C(=O)N[C@H](Cc3ccccc3)COc3ccc4ncc(F)cc4c3C(=O)N2)c1F` [Example 969, (3′S,7′S,13′R)-13′-benzyl-3,3,20′-trifluoro-N-(2-(4-fluoro-3-methoxyisoxazol-5-yl)ethyl)-7′-isobutyl-6′,9′-dimethyl-1′,5′,8′,11′-tetraoxo-2′,3′,4′,5′,6′,7′,8′,9′,11′,12′,13′,14′-dodecahydro-1′H-spiro[cyclobutane-1,10′-[1]oxa[4,7,10,14]tetraazacycloheptadecino[16,17-f]quinoline]-3′-carboxamide], the EC50 was determined as 142 nM and the Emax was 452%.
For the compound `COc1noc(CCNC(=O)[C@@H]2CC(=O)N(C)[C@@H](CC(C)C)C(=O)N(C)[C@H](CC(F)F)C(=O)N[C@H](Cc3ccccc3)COc3ccc4cnc(C)cc4c3C(=O)N2)c1F` [Example 970, (3S,7S,10R,13R)-13-benzyl-10-(2,2-difluoroethyl)-N-(2-(4-fluoro-3-methoxyisoxazol-5-yl)ethyl)-7-isobutyl-6,9,20-trimethyl-1,5,8,11-tetraoxo-1,2,3,4,5,6,7,8,9,10,11,12,13,14-tetradecahydro-[1]oxa[4,7,10,14]tetraazacycloheptadecino[16,17-f]isoquinoline-3-carboxamide], the EC50 turned out to be 109 nM and the Emax is 463%.
As to `COc1noc(CCNC(=O)[C@@H]2CC(=O)N(C)[C@@H](CC(C)C)C(=O)N(C)[C@H](Cc3noc(C(C)(C)C)n3)C(=O)N[C@H](Cc3ccccc3)COc3ccc4ncc(F)cc4c3C(=O)N2)n1` [Example 971, (3S,7S,10R,13R)-13-benzyl-10-((5-(tert-butyl)-1,2,4-oxadiazol-3-yl)methyl)-20-fluoro-7-isobutyl-N-(2-(3-methoxy-1,2,4-oxadiazol-5-yl)ethyl)-6,9-dimethyl-1,5,8,11-tetraoxo-1,2,3,4,5,6,7,8,9,10,11,12,13,14-tetradecahydro-[1]oxa[4,7,10,14]tetraazacycloheptadecino[16,17-f]quinoline-3-carboxamide], the EC50 worked out at 163 nM and the Emax turned out to be 482%.
Taken in the same sequence, the figures for `COc1cc(CCNC(=O)[C@@H]2CC(=O)N(C)[C@@H](CC(C)C)C(=O)N(C)[C@H](Cc3noc(C(C)(C)C)n3)C(=O)N[C@H](Cc3ccccc3)COc3ccc4ncc(F)cc4c3C(=O)N2)on1` [Example 972, (3S,7S,10R,13R)-13-benzyl-10-((5-(tert-butyl)-1,2,4-oxadiazol-3-yl)methyl)-20-fluoro-7-isobutyl-N-(2-(3-methoxyisoxazol-5-yl)ethyl)-6,9-dimethyl-1,5,8,11-tetraoxo-1,2,3,4,5,6,7,8,9,10,11,12,13,14-tetradecahydro-[1]oxa[4,7,10,14]tetraazacycloheptadecino[16,17-f]quinoline-3-carboxamide] were 128 nM and 436%.
As to `COc1noc(CCNC(=O)[C@@H]2CC(=O)N(C)[C@@H](CC(C)C)C(=O)N3CCCC[C@@H]3C(=O)N[C@H](Cc3ccccc3)COc3ccc4ncc(F)cc4c3C(=O)N2)c1F` [Example 973, (9S,13S,19aR,22R)-22-benzyl-5-fluoro-N-(2-(4-fluoro-3-methoxyisoxazol-5-yl)ethyl)-13-isobutyl-12-methyl-7,11,14,20-tetraoxo-7,8,9,10,11,12,13,14,17,18,19,19a,20,21,22,23-hexadecahydro-16H-pyrido[2′,1′:6,7][1]oxa[4,7,10,14]tetraazacycloheptadecino[16,17-f]quinoline-9-carboxamide], the EC50 came to 117 nM and the Emax turned out to be 446%.
Taken in the same sequence, the figures for `COc1noc(CCNC(=O)[C@@H]2CC(=O)N(C)[C@@H](CC(C)C)C(=O)N(C)[C@H](CC(F)(F)F)C(=O)N[C@H](Cc3ccccc3)COc3cc(C)c4ncccc4c3C(=O)N2)n1` [Example 975, (3S,7S,10R,13R)-13-benzyl-7-isobutyl-N-(2-(3-methoxy-1,2,4-oxadiazol-5-yl)ethyl)-6,9,17-trimethyl-1,5,8,11-tetraoxo-10-(2,2,2-trifluoroethyl)-1,2,3,4,5,6,7,8,9,10,11,12,13,14-tetradecahydro-[1]oxa[4,7,10,14]tetraazacycloheptadecino[16,17-f]quinoline-3-carboxamide] were 119 nM and 497%.
`CCOCC[C@@H]1C(=O)N[C@H](Cc2ccccc2)COc2ccc3ncc(F)cc3c2C(=O)N[C@H](C(=O)NCCc2nc(C3CC3)no2)CC(=O)N(C)[C@@H](CC(C)C)C(=O)N1C` [Example 976, (3S,7S,10R,13R)-13-Benzyl-N-(2-(3-cyclopropyl-1,2,4-oxadiazol-5-yl)ethyl)-10-(2-ethoxyethyl)-20-fluoro-7-isobutyl-6,9-dimethyl-1,5,8,11-tetraoxo-1,2,3,4,5,6,7,8,9,10,11,12,13,14-tetradecahydro-[1]oxa[4,7,10,14]tetraazacycloheptadecino[16,17-f]quinoline-3-carboxamide]: the EC50 amounted to 179 nM and the Emax worked out at 348%.
The matching figures for `COc1cc(CCNC(=O)[C@@H]2CC(=O)N(C)[C@@H](CC(C)C)C(=O)N(C)[C@H](CCOc3cnc(C)cn3)C(=O)N[C@H](Cc3ccccc3)COc3cc(C)nc(OC)c3C(=O)N2)on1` [Example 977, (3R,6R,9S,13S)-3-benzyl-9-isobutyl-16-methoxy-N-(2-(3-methoxyisoxazol-5-yl)ethyl)-7,10,18-trimethyl-6-(2-((5-methylpyrazin-2-yl)oxy)ethyl)-5,8,11,15-tetraoxo-2,3,4,5,6,7,8,9,10,11,12,13,14,15-tetradecahydropyrido[3,4-p][1]oxa[4,7,10,14]tetraazacycloheptadecine-13-carboxamide]: 281 nM and 410%.
As to `COc1cc(OCC[C@@H]2C(=O)N[C@H](Cc3ccccc3)COc3cc(C)nc(OC)c3C(=O)N[C@H](C(=O)NCCc3cc(OC)no3)CC(=O)N(C)[C@@H](CC(C)C)C(=O)N2C)ccn1` [Example 978, (3R,6R,9S,13S)-3-benzyl-9-isobutyl-16-methoxy-N-(2-(3-methoxyisoxazol-5-yl)ethyl)-6-(2-((2-methoxypyridin-4-yl)oxy)ethyl)-7,10,18-trimethyl-5,8,11,15-tetraoxo-2,3,4,5,6,7,8,9,10,11,12,13,14,15-tetradecahydropyrido[3,4-p][1]oxa[4,7,10,14]tetraazacycloheptadecine-13-carboxamide], the EC50 came to 129 nM and the Emax stood at 457%.
The matching figures for `COc1cc(CCNC(=O)[C@@H]2CC(=O)N(C)[C@@H](CC(C)C)C(=O)N(C)[C@H](CC3CC3)C(=O)N[C@H](Cc3ccccc3)COc3cc(C)nc(OC)c3C(=O)N2)on1` [Example 979, (3R,6R,9S,13S)-3-benzyl-6-(cyclopropylmethyl)-9-isobutyl-16-methoxy-N-(2-(3-methoxyisoxazol-5-yl)ethyl)-7,10,18-trimethyl-5,8,11,15-tetraoxo-2,3,4,5,6,7,8,9,10,11,12,13,14,15-tetradecahydropyrido[3,4-p][1]oxa[4,7,10,14]tetraazacycloheptadecine-13-carboxamide]: 209 nM and 394%.
The matching figures for `COc1cc(CCNC(=O)[C@@H]2CC(=O)N(C)[C@@H](CC(C)C)C(=O)N(C)[C@H](CC3CCC3)C(=O)N[C@H](Cc3ccccc3)COc3cc(C)nc(OC)c3C(=O)N2)on1` [Example 980, (3R,6R,9S,13S)-3-benzyl-6-(cyclobutylmethyl)-9-isobutyl-16-methoxy-N-(2-(3-methoxyisoxazol-5-yl)ethyl)-7,10,18-trimethyl-5,8,11,15-tetraoxo-2,3,4,5,6,7,8,9,10,11,12,13,14,15-tetradecahydropyrido[3,4-p][1]oxa[4,7,10,14]tetraazacycloheptadecine-13-carboxamide]: 53 nM and 435%.
The matching figures for `COc1cc(CCNC(=O)[C@@H]2CC(=O)N(C)[C@@H](CC(C)C)C(=O)N(C)[C@H](Cc3nc(C(F)(F)F)no3)C(=O)N[C@H](Cc3ccccc3)COc3c[n+]([O-])c4ccc(F)cc4c3C(=O)N2)on1` [Example 981, (3S,7S,10R,13R)-13-benzyl-20-fluoro-7-isobutyl-3-((2-(3-methoxyisoxazol-5-yl)ethyl)carbamoyl)-6,9-dimethyl-1,5,8,11-tetraoxo-10-((3-(trifluoromethyl)-1,2,4-oxadiazol-5-yl)methyl)-1,2,3,4,5,6,7,8,9,10,11,12,13,14-tetradecahydro-[1]oxa[4,7,10,14]tetraazacycloheptadecino[17,16-c]quinoline 17-oxide]: 133 nM and 448%.
Regarding `COc1cc(CCNC(=O)[C@@H]2CC(=O)N(C)[C@@H](CC(C)C)C(=O)N(C)[C@H](Cc3nc(C(F)(F)F)no3)C(=O)N[C@H](Cc3ccccc3)COc3cc(C)c4c(ccc[n+]4[O-])c3C(=O)N2)on1` [Example 982, (3S,7S,10R,13R)-13-benzyl-7-isobutyl-3-((2-(3-methoxyisoxazol-5-yl)ethyl)carbamoyl)-6,9,17-trimethyl-1,5,8,11-tetraoxo-10-((3-(trifluoromethyl)-1,2,4-oxadiazol-5-yl)methyl)-1,2,3,4,5,6,7,8,9,10,11,12,13,14-tetradecahydro-[1]oxa[4,7,10,14]tetraazacycloheptadecino[16,17-f]quinoline 18-oxide], the half-maximal effective concentration (EC50) worked out at 236 nM and the Emax is 530%.
Take `COc1noc(CCNC(=O)[C@@H]2CC(=O)N(C)[C@@H](CC(C)C)C(=O)N(C)[C@H](Cc3nc(C(F)(F)F)no3)C(=O)N[C@H](Cc3ccccc3)COc3ccc4c(cc(F)c[n+]4[O-])c3C(=O)N2)n1` [Example 983, (3S,7S,10R,13R)-13-benzyl-20-fluoro-7-isobutyl-3-((2-(3-methoxy-1,2,4-oxadiazol-5-yl)ethyl)carbamoyl)-6,9-dimethyl-1,5,8,11-tetraoxo-10-((3-(trifluoromethyl)-1,2,4-oxadiazol-5-yl)methyl)-1,2,3,4,5,6,7,8,9,10,11,12,13,14-tetradecahydro-[1]oxa[4,7,10,14]tetraazacycloheptadecino[16,17-f]quinoline 18-oxide]: the EC50 stood at 270 nM and the maximal effect (Emax) came out at 506%.

A word on the EC50: it is the concentration at which the effect is half-maximal. As usually defined, the Emax is the maximal effect, on the per cent scale that the assay sets.
